Common to all, as to assay: PI3-kinase
Format in all cases: biochemical

Experiment [1] deals with PI3Kα (p110α/p85α) (Homo sapiens, UniProt P42336).
Experiment [2] deals with PI3Kγ (p110γ) (Homo sapiens, UniProt P48736).
Experiment [3] deals with PI3Kδ (p110δ/p85α) (Homo sapiens, UniProt O00329).
PI3Kδ (p110δ/p85α), sequence (O00329 whole entry): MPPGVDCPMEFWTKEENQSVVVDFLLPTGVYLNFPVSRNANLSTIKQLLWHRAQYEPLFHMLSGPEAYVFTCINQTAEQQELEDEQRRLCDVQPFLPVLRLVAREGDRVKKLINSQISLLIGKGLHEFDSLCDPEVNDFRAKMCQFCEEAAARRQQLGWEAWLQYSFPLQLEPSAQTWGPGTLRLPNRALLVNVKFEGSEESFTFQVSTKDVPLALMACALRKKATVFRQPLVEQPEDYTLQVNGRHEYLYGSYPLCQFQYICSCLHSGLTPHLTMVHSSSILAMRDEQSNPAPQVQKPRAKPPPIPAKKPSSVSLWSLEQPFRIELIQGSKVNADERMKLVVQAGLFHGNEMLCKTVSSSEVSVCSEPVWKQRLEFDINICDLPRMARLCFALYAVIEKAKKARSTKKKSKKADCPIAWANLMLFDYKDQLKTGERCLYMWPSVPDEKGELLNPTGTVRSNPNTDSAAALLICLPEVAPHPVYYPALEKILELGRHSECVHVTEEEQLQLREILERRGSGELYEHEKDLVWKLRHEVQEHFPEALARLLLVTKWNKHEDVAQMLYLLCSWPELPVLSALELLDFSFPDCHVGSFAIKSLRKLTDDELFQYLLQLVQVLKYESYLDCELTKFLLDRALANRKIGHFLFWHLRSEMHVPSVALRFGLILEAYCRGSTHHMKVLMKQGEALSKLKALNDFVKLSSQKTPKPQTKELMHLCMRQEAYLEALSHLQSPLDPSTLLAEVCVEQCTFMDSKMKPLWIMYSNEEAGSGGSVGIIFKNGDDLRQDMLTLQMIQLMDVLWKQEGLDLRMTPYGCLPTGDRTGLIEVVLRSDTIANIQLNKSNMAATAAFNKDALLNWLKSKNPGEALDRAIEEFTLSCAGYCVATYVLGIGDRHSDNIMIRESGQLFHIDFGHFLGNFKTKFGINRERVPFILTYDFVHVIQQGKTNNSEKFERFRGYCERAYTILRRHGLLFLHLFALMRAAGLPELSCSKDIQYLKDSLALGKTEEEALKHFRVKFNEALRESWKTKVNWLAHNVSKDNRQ
PI3Kδ (p110δ/p85α), sequence (P27986 2-724 partner): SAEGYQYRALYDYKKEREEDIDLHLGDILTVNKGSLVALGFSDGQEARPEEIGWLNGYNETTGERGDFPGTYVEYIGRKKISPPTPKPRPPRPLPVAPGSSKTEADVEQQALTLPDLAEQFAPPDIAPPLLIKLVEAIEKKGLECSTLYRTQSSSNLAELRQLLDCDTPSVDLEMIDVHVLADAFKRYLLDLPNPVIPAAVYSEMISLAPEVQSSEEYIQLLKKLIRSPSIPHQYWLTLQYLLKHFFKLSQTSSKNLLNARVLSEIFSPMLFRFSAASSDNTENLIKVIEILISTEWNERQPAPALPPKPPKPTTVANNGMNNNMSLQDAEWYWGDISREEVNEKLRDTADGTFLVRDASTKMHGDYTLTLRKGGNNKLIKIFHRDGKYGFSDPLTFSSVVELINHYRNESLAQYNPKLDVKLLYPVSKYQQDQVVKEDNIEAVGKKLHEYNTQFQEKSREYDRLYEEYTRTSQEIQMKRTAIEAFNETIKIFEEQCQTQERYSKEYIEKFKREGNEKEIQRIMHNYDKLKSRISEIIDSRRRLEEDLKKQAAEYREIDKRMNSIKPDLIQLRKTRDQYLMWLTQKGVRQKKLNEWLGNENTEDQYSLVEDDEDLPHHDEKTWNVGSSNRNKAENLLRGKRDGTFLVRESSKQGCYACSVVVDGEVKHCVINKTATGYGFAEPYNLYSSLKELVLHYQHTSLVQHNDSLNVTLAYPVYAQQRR

PI3Kγ (p110γ), sequence (P48736 whole entry): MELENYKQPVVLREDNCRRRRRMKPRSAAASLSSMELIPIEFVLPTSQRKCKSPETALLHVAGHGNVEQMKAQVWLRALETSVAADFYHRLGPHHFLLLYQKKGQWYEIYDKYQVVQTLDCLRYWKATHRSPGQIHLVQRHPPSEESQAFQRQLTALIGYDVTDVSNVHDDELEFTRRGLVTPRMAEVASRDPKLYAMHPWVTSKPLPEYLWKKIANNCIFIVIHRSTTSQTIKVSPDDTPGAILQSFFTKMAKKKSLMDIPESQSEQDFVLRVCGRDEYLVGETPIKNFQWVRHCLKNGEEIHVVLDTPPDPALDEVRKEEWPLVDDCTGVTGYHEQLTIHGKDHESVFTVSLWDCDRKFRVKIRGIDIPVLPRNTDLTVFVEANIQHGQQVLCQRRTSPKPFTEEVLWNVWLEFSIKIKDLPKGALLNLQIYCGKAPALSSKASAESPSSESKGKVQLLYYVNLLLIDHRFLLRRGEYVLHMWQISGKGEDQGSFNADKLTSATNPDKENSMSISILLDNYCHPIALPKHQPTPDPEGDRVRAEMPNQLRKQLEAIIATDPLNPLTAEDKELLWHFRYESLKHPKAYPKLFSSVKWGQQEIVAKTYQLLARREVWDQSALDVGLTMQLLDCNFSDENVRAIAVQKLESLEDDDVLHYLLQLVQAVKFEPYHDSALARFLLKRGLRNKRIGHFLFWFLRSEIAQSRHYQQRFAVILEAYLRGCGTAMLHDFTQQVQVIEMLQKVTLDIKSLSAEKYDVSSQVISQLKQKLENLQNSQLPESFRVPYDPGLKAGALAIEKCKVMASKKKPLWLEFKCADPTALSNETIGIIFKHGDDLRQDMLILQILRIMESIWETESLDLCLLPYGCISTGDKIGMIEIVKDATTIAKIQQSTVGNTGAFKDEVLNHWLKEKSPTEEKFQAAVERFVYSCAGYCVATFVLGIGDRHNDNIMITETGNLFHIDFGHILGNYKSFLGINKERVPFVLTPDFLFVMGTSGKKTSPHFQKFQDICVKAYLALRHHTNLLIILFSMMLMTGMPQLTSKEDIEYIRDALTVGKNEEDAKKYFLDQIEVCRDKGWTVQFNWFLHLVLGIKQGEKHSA
PI3Kα (p110α/p85α), sequence (P42336 whole entry): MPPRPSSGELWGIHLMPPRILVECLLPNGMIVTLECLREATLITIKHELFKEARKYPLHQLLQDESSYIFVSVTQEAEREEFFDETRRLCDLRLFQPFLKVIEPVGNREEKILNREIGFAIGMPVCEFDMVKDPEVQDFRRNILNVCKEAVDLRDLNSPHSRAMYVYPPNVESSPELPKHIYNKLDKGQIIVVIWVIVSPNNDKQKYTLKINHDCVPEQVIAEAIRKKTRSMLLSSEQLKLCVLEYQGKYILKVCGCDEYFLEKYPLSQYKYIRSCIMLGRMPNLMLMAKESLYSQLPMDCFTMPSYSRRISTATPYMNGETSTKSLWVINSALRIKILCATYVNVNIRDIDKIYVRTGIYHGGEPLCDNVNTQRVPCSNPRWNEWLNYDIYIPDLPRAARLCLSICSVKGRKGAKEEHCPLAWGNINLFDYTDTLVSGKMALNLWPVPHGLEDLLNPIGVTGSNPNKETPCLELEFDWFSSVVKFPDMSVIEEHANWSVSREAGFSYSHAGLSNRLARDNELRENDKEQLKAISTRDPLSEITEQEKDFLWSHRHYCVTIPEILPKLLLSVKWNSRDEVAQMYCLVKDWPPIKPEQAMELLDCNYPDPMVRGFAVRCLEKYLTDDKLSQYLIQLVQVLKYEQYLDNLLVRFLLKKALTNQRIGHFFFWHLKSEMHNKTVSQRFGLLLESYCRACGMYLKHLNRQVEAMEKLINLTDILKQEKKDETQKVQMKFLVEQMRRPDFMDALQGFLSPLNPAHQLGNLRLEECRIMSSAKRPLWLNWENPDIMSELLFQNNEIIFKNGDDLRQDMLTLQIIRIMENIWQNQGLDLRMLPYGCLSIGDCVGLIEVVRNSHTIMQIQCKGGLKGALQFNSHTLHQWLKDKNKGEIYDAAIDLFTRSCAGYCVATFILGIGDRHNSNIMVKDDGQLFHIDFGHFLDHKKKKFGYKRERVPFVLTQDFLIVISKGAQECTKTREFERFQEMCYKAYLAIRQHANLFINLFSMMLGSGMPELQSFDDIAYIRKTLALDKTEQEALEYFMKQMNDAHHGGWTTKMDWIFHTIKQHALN
PI3Kα (p110α/p85α), sequence (P27986 2-724 partner): as the sequence (P27986 2-724 partner) above

Regarding CNIO-PI3Ki, the IC50 in experiment [1] is 2.4 nM; in experiment [2], 44 nM; in experiment [3], 2.5 nM.

In general, IC50 refers to the concentration that gives 50% inhibition. Low readings indicate greater potency in that assay, high ones weaker potency in that assay.
